Source: patent US20250134889A1, “TARGETING IRE1 KINASE AND FMRP FOR PROPHYLAXIS, MANAGEMENT AND TREATMENT OF ATHEROSCLEROSIS” (CEDARS-SINAI MEDICAL CENTER, priority 2022, published 2025)

Columns and labels:
macrophages = experiment: Cholesterol uptake in macrophages (fluorescently labeled cholesterol); type: cell-based, mouse; conditions: AMG-18 10 μM 1 hour pre-treatment, labeled cholesterol 4 hours
[1] = molecular target: T1, human IRE1-kinase/RNase domains (amino acids 468-977) (Homo sapiens, UniProt O75460); experiment: Kinase reaction with purified recombinant IRE1 and FMRP; type: biochemical; conditions: purified proteins, ATP-γ-S
T1 construct: recombinant human IRE1-kinase/RNase domains (amino acids 468-977); purchased Biotech (so in the source) E31-11G

IRE1 kinase activity = molecular target: T2, IRE1 kinase activity (Mus musculus, UniProt Q9EQY0); experiment: IRE1 and FMRP phosphorylation in peritoneal macrophages of TM-injected mice (western blot); type: in vivo; conditions: C57BL/6, AMG-18 30 mg/kg 8 hours, TM 1 mg/kg
T2 construct: from tissue; host or cells: thioglycolate-elicited peritoneal macrophages of C57BL/6 mice
Protocol: FIGS. 1A-1K depict FMRP is a new inositol-requiring enzyme-1 (IRE1) kinase substrate. A representative blot is shown from at least n=3 independent experiments. Data are mean±SEM. Unpaired 1-test with Welch's correction or paired 1-test. * P≤0.05, ** P≤0.01, *** P≤0.001. • 1A. STING analysis of published IRE1 interactome proteins in relation to FMRP (Acosta-Alvear et al., 2018). • 1B. HEK293T cells were co-transfected with IRE1 and FMRP plasmids and stimulated with TG (600 nM) or TM (1 mg/ml) for 2 hours. Protein lysates were immunoprecipitated (IP) with anti-IRE1 or IgG (control) antibodies and analyzed by Western blotting using specific antibodies for FMRP and IRE1 (n=3). • 1C. RAW 264.7 mouse macrophages were treated with either oxLDL (50 μg/ml) or TG (300 nM) for 6 hours. Protein lysates were treated with λ Phosphatase (PPase) for 30 minutes and analyzed by western blotting using specific antibodies for pFMRP, FMRP, pIRE1, IRE1 and β-Actin. pFMRP/FMRP fold induction is depicted above the blots (n=6). • 1D. […] Protein lysates were analyzed by western blotting using specific antibodies for pFMRP, FMRP, pIRE1, IRE1 and β-Actin. pFMRP/FMRP-fold induction is depicted above the blots (n=5). • 1E. […] Protein lysates were analyzed by western blotting using specific antibodies for pFMRP, FMRP, pIRE1, IRE1 and β-Actin. pFMRP/FMRP fold induction is depicted above the blots (n=4). • 1F. […]

T1 sequence (O75460 468-977): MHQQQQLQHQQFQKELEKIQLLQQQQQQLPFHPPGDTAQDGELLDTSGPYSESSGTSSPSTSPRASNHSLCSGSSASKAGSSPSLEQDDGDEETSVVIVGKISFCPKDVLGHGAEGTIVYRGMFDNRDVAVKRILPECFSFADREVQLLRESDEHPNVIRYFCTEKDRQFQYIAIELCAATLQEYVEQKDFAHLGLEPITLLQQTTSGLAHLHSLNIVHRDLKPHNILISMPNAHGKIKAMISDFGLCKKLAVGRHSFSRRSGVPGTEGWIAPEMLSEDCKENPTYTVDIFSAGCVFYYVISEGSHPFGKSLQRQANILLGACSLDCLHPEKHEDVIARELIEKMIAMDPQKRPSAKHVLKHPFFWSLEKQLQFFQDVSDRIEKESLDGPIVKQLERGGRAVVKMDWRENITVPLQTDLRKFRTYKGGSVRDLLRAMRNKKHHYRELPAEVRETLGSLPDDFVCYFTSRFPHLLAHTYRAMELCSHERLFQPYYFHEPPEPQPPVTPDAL
T2 sequence (Q9EQY0 21-977): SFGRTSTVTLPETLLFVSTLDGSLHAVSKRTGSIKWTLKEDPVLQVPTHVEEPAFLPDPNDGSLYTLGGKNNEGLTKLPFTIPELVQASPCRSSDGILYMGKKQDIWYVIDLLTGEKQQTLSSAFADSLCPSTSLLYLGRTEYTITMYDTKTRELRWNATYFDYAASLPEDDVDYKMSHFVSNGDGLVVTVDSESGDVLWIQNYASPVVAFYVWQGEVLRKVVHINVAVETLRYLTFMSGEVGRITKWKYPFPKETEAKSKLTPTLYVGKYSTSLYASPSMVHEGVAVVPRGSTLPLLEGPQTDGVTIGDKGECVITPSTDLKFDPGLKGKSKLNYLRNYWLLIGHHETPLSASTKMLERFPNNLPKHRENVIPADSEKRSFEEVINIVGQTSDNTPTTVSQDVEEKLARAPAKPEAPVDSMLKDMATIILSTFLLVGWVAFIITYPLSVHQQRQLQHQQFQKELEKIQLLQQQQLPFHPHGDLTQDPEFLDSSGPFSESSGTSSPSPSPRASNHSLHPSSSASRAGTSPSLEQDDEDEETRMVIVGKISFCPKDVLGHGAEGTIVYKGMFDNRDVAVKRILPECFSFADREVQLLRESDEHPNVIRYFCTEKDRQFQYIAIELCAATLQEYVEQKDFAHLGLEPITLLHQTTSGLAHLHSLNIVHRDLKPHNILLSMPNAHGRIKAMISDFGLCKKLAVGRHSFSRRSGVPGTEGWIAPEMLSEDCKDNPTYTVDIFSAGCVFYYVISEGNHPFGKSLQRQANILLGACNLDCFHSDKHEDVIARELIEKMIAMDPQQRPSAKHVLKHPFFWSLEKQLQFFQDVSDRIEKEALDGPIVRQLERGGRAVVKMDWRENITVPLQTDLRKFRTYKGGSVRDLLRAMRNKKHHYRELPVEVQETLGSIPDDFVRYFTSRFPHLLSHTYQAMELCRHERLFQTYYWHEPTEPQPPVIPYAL

Cc1ccc2c(NS(=O)(=O)c3ccccc3Cl)cccc2c1Oc1ncccc1-c1ccnc(N[C@H]2CCCNC2)n1 [AMG-18]
cholesterol uptake (macrophages): neither FMRP knock down nor IRE1 kinase inhibition altered | FMRP phosphorylation in kinase reaction [1]: AMG-18-sensitive | IRE1 phosphorylation in kinase reaction [1]: AMG-18-sensitive | FMRP phosphorylation in PM (IRE1 kinase activity): reduced | IRE1 kinase activity (pIRE1) in PM (IRE1 kinase activity): inhibited
